Publication PMC5218480 (PLoS ONE, 2017)

System: MV-4-11 cells
Assay: Gene expression microarray analysis (Affymetrix PrimeView) and GSEA
Type: cell-based, human
Design: RFU PODN (11730768_x_at) / Fold change /veh PODN (11730768_x_at) / RFU LINC00158 (11744669_a_at) / Fold change /veh LINC00158 (11744669_a_at) / RFU DUSP10 (11751237_a_at) / Fold change /veh DUSP10 (11751237_a_at) / RFU ID3 (11757404_x_at) / Fold change /veh ID3 (11757404_x_at) / RFU PLEKHG5 (11737974_s_at) / Fold change /veh PLEKHG5 (11737974_s_at) / RFU LRRC4B (11730491_at) / Fold change /veh LRRC4B (11730491_at) / RFU GIMAP4 (11747438_a_at) / Fold change /veh GIMAP4 (11747438_a_at) / RFU KRT8 (11758183_x_at) / Fold change /veh KRT8 (11758183_x_at) / RFU CNN1 (11734310_a_at) / Fold change /veh CNN1 (11734310_a_at) / RFU VPS37D (11726825_at) / Fold change /veh VPS37D (11726825_at) / RFU C10orf10 (11716522_x_at) / Fold change /veh C10orf10 (11716522_x_at) / RFU KIR2DL2 /// KIR2DL4 /// KIR2DL5A /// KIR2DL5B /// KIR2DS1 /// KIR2DS2 /// KIR2DS3 /// KIR2DS4 /// KIR3DL3 /// KIR3DL3 /// KIR3DS1 (11738374_at) / Fold change /veh KIR2DL2 /// KIR2DL4 /// KIR2DL5A /// KIR2DL5B /// KIR2DS1 /// KIR2DS2 /// KIR2DS3 /// KIR2DS4 /// KIR3DL3 /// KIR3DL3 /// KIR3DS1 (11738374_at) / RFU C1QL1 (11718748_at) / Fold change /veh C1QL1 (11718748_at) / RFU TMPRSS4 (11747572_a_at) / Fold change /veh TMPRSS4 (11747572_a_at) / RFU HAMP (11756126_x_at) / Fold change /veh HAMP (11756126_x_at) / RFU RNFT2 (11725882_a_at) / Fold change /veh RNFT2 (11725882_a_at) / RFU NR4A2 (11747474_a_at) / Fold change /veh NR4A2 (11747474_a_at) / RFU ABCC12 (11746883_a_at) / Fold change /veh ABCC12 (11746883_a_at) / RFU TMEM136 (11760407_x_at) / Fold change /veh TMEM136 (11760407_x_at) / RFU CLDN22 /// WWC2 (11732394_at) / Fold change /veh CLDN22 /// WWC2 (11732394_at) / RFU HLA-DPB1 (11760878_x_at) / Fold change /veh HLA-DPB1 (11760878_x_at) / RFU SPINT1 (11716480_a_at) / Fold change /veh SPINT1 (11716480_a_at) / RFU GAP43 (11754022_s_at) / Fold change /veh GAP43 (11754022_s_at) / RFU A4GNT (11735810_at) / Fold change /veh A4GNT (11735810_at) / RFU PRB3 (11715151_x_at) / Fold change /veh PRB3 (11715151_x_at) / RFU TUBB4B (11761932_at) / Fold change /veh TUBB4B (11761932_at) / RFU CAPN14 (11732068_a_at) / Fold change /veh CAPN14 (11732068_a_at) / RFU TMCC2 (11721928_a_at) / Fold change /veh TMCC2 (11721928_a_at) / RFU IRGQ (11745062_a_at) / Fold change /veh IRGQ (11745062_a_at) / RFU FAM174B (11720279_a_at) / Fold change /veh FAM174B (11720279_a_at) / RFU TMPRSS4 (11748680_a_at) / Fold change /veh TMPRSS4 (11748680_a_at) / RFU FAM212B (11763350_a_at) / Fold change /veh FAM212B (11763350_a_at) / RFU PLEKHG5 (11743358_a_at) / Fold change /veh PLEKHG5 (11743358_a_at) / RFU ZSCAN30 (11745921_a_at) / Fold change /veh ZSCAN30 (11745921_a_at) / RFU CMKLR1 (11741424_a_at) / Fold change /veh CMKLR1 (11741424_a_at) / RFU LOC101060620 /// MAPK8IP1 (11723275_at) / Fold change /veh LOC101060620 /// MAPK8IP1 (11723275_at) / RFU SPTSSB (11747773_x_at) / Fold change /veh SPTSSB (11747773_x_at) / RFU PRSS12 (11739890_at) / Fold change /veh PRSS12 (11739890_at) / RFU BIN1 (11741810_x_at) / Fold change /veh BIN1 (11741810_x_at) / RFU WNT11 (11732464_a_at) / Fold change /veh WNT11 (11732464_a_at) / RFU C10orf10 (11716521_a_at) / Fold change /veh C10orf10 (11716521_a_at) / RFU C5orf56 (11738089_at) / Fold change /veh C5orf56 (11738089_at) / RFU CYB561 (11721691_x_at) / Fold change /veh CYB561 (11721691_x_at) / RFU ANKRD19P (11752326_a_at) / Fold change /veh ANKRD19P (11752326_a_at) / RFU OR2T12 /// OR2T33 /// OR2T8 (11738714_s_at) / Fold change /veh OR2T12 /// OR2T33 /// OR2T8 (11738714_s_at) / RFU VCAN (11748164_a_at) / Fold change /veh VCAN (11748164_a_at) / RFU JSRP1 (11732532_at) / Fold change /veh JSRP1 (11732532_at) / RFU KRTAP10-11 (11738290_x_at) / Fold change /veh KRTAP10-11 (11738290_x_at) / RFU MYO3A (11730013_a_at) / Fold change /veh MYO3A (11730013_a_at) / RFU EBF3 (11725865_a_at) / Fold change /veh EBF3 (11725865_a_at) / RFU CAMK2N1 (11719241_x_at) / Fold change /veh CAMK2N1 (11719241_x_at) / RFU C5orf56 (11738088_a_at) / Fold change /veh C5orf56 (11738088_a_at) / RFU OLFML3 (11715873_a_at) / Fold change /veh OLFML3 (11715873_a_at) / RFU LOC100653217 /// NTM (11731650_a_at) / Fold change /veh LOC100653217 /// NTM (11731650_a_at) / RFU MAPK11 (11762145_a_at) / Fold change /veh MAPK11 (11762145_a_at) / RFU FIZ1 (11724087_x_at) / Fold change /veh FIZ1 (11724087_x_at) / RFU OASL (11726364_x_at) / Fold change /veh OASL (11726364_x_at) / RFU SOX15 (11748057_x_at) / Fold change /veh SOX15 (11748057_x_at) / RFU CD79A (11719716_a_at) / Fold change /veh CD79A (11719716_a_at) / RFU HIST1H1D (11736915_at) / Fold change /veh HIST1H1D (11736915_at) / RFU CASKIN2 (11723855_a_at) / Fold change /veh CASKIN2 (11723855_a_at) / RFU LOC730098 (11760151_x_at) / Fold change /veh LOC730098 (11760151_x_at) / RFU OR4N2 (11742367_at) / Fold change /veh OR4N2 (11742367_at) / RFU PRRT2 (11749266_a_at) / Fold change /veh PRRT2 (11749266_a_at) / RFU SNX32 (11753110_a_at) / Fold change /veh SNX32 (11753110_a_at) / RFU CDHR5 (11726645_a_at) / Fold change /veh CDHR5 (11726645_a_at) / RFU RCAN1 (11760418_a_at) / Fold change /veh RCAN1 (11760418_a_at) / RFU FAM167A (11723789_a_at) / Fold change /veh FAM167A (11723789_a_at) / RFU FAM26E (11764081_at) / Fold change /veh FAM26E (11764081_at) / RFU ISYNA1 (11749810_s_at) / Fold change /veh ISYNA1 (11749810_s_at) / RFU ACY1 (11761880_at) / Fold change /veh ACY1 (11761880_at) / RFU 11764098_at / Fold change /veh 11764098_at / RFU SAMD14 (11745864_x_at) / Fold change /veh SAMD14 (11745864_x_at) / RFU NPB (11741838_a_at) / Fold change /veh NPB (11741838_a_at) / RFU TMPRSS6 (11731388_a_at) / Fold change /veh TMPRSS6 (11731388_a_at) / RFU KRTAP10-2 (11738614_at) / Fold change /veh KRTAP10-2 (11738614_at) / RFU ARHGAP8 /// PRR5-ARHGAP8 (11727945_x_at) / Fold change /veh ARHGAP8 /// PRR5-ARHGAP8 (11727945_x_at) / RFU KRTAP5-7 /// NADSYN1 (11734609_at) / Fold change /veh KRTAP5-7 /// NADSYN1 (11734609_at) / RFU RASL12 (11751679_a_at) / Fold change /veh RASL12 (11751679_a_at) / RFU CDKN2B (11736163_a_at) / Fold change /veh CDKN2B (11736163_a_at) / RFU PRF1 (11729649_at) / Fold change /veh PRF1 (11729649_at) / RFU, ZNF638 /// ZNF638-IT1 / Fold change vs veh, ZNF638 /// ZNF638-IT1 / RFU, PANK3 / Fold change vs veh, PANK3 / RFU, SH3YL1 / Fold change vs veh, SH3YL1 / RFU, ZEB2 / Fold change vs veh, ZEB2 / RFU, NRIP1 / Fold change vs veh, NRIP1 / RFU, PTTG1IP / Fold change vs veh, PTTG1IP / RFU, CAPN2 / Fold change vs veh, CAPN2 / RFU, MED14 / Fold change vs veh, MED14 / RFU, SNORA58 / Fold change vs veh, SNORA58 / RFU, C1orf63 / Fold change vs veh, C1orf63 / RFU, LRRFIP1 / Fold change vs veh, LRRFIP1 / RFU, NDUFAF7 / Fold change vs veh, NDUFAF7 / RFU, SLC12A2 / Fold change vs veh, SLC12A2 / RFU, IBTK / Fold change vs veh, IBTK / RFU, ESF1 / Fold change vs veh, ESF1 / Fold change vs veh, TMEM50B / RFU, TAOK1 / Fold change vs veh, TAOK1 / RFU, ACBD3 / Fold change vs veh, ACBD3 / RFU, TMA16 / Fold change vs veh, TMA16 / RFU, RWDD3 / Fold change vs veh, RWDD3 / RFU, BCAT1 / Fold change vs veh, BCAT1 / RFU, EDEM3 / Fold change vs veh, EDEM3 / RFU, TMEM33 / Fold change vs veh, TMEM33 / RFU, WDR75 / Fold change vs veh, WDR75 / RFU, AHCTF1 / Fold change vs veh, AHCTF1 / RFU, TFRC / Fold change vs veh, TFRC / RFU, ZDHHC17 / Fold change vs veh, ZDHHC17 / RFU, NOM1 / Fold change vs veh, NOM1 / RFU, ARL8B / Fold change vs veh, ARL8B / RFU, ZBTB11 / Fold change vs veh, ZBTB11 / RFU, TAMM41 / Fold change vs veh, TAMM41 / RFU, KIAA1704 /// LOC100996395 / Fold change vs veh, KIAA1704 /// LOC100996395 / RFU, ING1 / Fold change vs veh, ING1 / RFU, TRMT61B / Fold change vs veh, TRMT61B / RFU, FUBP3 / Fold change vs veh, FUBP3 / RFU, TP53 / Fold change vs veh, TP53 / RFU, TNKS2 / Fold change vs veh, TNKS2 / RFU, ZFP14 / Fold change vs veh, ZFP14 / RFU, ACTR2 / Fold change vs veh, ACTR2 / RFU, PPP3R1 / Fold change vs veh, PPP3R1 / RFU, PIK3R1 / Fold change vs veh, PIK3R1 / RFU, HNRNPA1 / Fold change vs veh, HNRNPA1 / RFU, RNF170 / Fold change vs veh, RNF170 / RFU, ZNF28 / Fold change vs veh, ZNF28 / RFU, RNGTT / Fold change vs veh, RNGTT / RFU, OGT / Fold change vs veh, OGT / RFU, BRD1 / Fold change vs veh, BRD1 / RFU, MARS / Fold change vs veh, MARS / RFU, ZNF655 / Fold change vs veh, ZNF655 / RFU, FAHD1 / Fold change vs veh, FAHD1 / RFU, BDP1 / Fold change vs veh, BDP1 / RFU, LRRCC1 / Fold change vs veh, LRRCC1 / RFU, ARID1A / Fold change vs veh, ARID1A / RFU, ZNF146 / Fold change vs veh, ZNF146 / RFU, ZNF330 / Fold change vs veh, ZNF330 / RFU, GPN3 / Fold change vs veh, GPN3 / RFU, C9orf123 / Fold change vs veh, C9orf123 / RFU, N4BP2L2 / Fold change vs veh, N4BP2L2 / RFU, ARFIP1 / Fold change vs veh, ARFIP1 / RFU, FAM179B / Fold change vs veh, FAM179B / RFU, BCL10 / Fold change vs veh, BCL10 / RFU, UHRF1BP1L / Fold change vs veh, UHRF1BP1L / RFU, BET1 / Fold change vs veh, BET1 / RFU, CNOT2 / Fold change vs veh, CNOT2 / RFU, ZNF268 / Fold change vs veh, ZNF268 / Fold change vs veh, ZNF507 / RFU, DGCR2 / Fold change vs veh, DGCR2 / RFU, WDSUB1 / Fold change vs veh, WDSUB1 / Fold change vs veh, HSP90B1 /// MIR3652 / RFU, ADSS / Fold change vs veh, ADSS / RFU, GK / Fold change vs veh, GK / RFU, ZNF148 / Fold change vs veh, ZNF148 / RFU, TAF9 / Fold change vs veh, TAF9 / RFU, SLC1A5 / Fold change vs veh, SLC1A5 / RFU, SLMO2 / Fold change vs veh, SLMO2 / RFU, ABCC4 / Fold change vs veh, ABCC4 / RFU, LOC101060439 /// RAP1B / Fold change vs veh, LOC101060439 /// RAP1B / RFU, RFX7 / Fold change vs veh, RFX7 / RFU, GTPBP10 / Fold change vs veh, GTPBP10 / RFU, CNEP1R1 / Fold change vs veh, CNEP1R1 / RFU, BIVM-ERCC5 /// ERCC5 / Fold change vs veh, BIVM-ERCC5 /// ERCC5 / RFU, ILF3 / Fold change vs veh, ILF3 / RFU 11762660_at / Fold change /veh 11762660_at / RFU VCAN (11757783_s_at) / Fold change /veh VCAN (11757783_s_at) / RFU DDX43 (11728927_at) / Fold change /veh DDX43 (11728927_at) / RFU KRT8 (11758188_x_at) / Fold change /veh KRT8 (11758188_x_at) / RFU NKD1 (11759106_at) / Fold change /veh NKD1 (11759106_at) / RFU SRD5A1 (11742802_a_at) / Fold change /veh SRD5A1 (11742802_a_at) / RFU TPSAB1 /// TPSB2 (11721975_s_at) / Fold change /veh TPSAB1 /// TPSB2 (11721975_s_at) / RFU GSTM3 (11746129_a_at) / Fold change /veh GSTM3 (11746129_a_at) / RFU IL23R (11737362_x_at) / Fold change /veh IL23R (11737362_x_at) / RFU TMEM51 (11727254_a_at) / Fold change /veh TMEM51 (11727254_a_at) / RFU PIWIL2 (11732686_x_at) / Fold change /veh PIWIL2 (11732686_x_at) / RFU ORM1 (11744905_x_at) / Fold change /veh ORM1 (11744905_x_at) / RFU CCDC152 (11743942_at) / Fold change /veh CCDC152 (11743942_at) / RFU ECM1 (11717891_a_at) / Fold change /veh ECM1 (11717891_a_at) / RFU IL23R (11748794_a_at) / Fold change /veh IL23R (11748794_a_at) / RFU TNFAIP8L3 (11732012_x_at) / Fold change /veh TNFAIP8L3 (11732012_x_at) / RFU MBOAT4 (11741988_at) / Fold change /veh MBOAT4 (11741988_at) / RFU 11764193_at / Fold change /veh 11764193_at / RFU TMEM53 (11763286_at) / Fold change /veh TMEM53 (11763286_at) / RFU MAGEB2 (11727129_at) / Fold change /veh MAGEB2 (11727129_at) / RFU TMEM200A (11744735_a_at) / Fold change /veh TMEM200A (11744735_a_at) / RFU CCDC152 (11751479_a_at) / Fold change /veh CCDC152 (11751479_a_at) / RFU FAM211A (11726209_a_at) / Fold change /veh FAM211A (11726209_a_at) / RFU RGS16 (11746705_a_at) / Fold change /veh RGS16 (11746705_a_at) / RFU VCAN (11755009_s_at) / Fold change /veh VCAN (11755009_s_at) / RFU RHOB (11743442_s_at) / Fold change /veh RHOB (11743442_s_at) / RFU RGS16 (11720943_a_at) / Fold change /veh RGS16 (11720943_a_at) / RFU RGS16 (11720944_at) / Fold change /veh RGS16 (11720944_at) / RFU, VPS4B / Fold change vs veh, VPS4B / RFU, CREB1 / Fold change vs veh, CREB1 / RFU, DNAJC13 / Fold change vs veh, DNAJC13 / RFU, GNAQ / Fold change vs veh, GNAQ / RFU, CDK5R1 / Fold change vs veh, CDK5R1 / RFU, ZRANB3 / Fold change vs veh, ZRANB3 / RFU, CUL4A / Fold change vs veh, CUL4A / RFU, CCNY / Fold change vs veh, CCNY / RFU, UFL1 / Fold change vs veh, UFL1 / RFU, COG3 / Fold change vs veh, COG3 / RFU, DIAPH2 / Fold change vs veh, DIAPH2 / RFU, SKA2 / Fold change vs veh, SKA2 / RFU, AFF3 / Fold change vs veh, AFF3 / RFU, LMF1 / Fold change vs veh, LMF1 / RFU, IPO11 / Fold change vs veh, IPO11 / RFU, DFFB / Fold change vs veh, DFFB / RFU, FOXP1 / Fold change vs veh, FOXP1 / RFU, CARD8 / Fold change vs veh, CARD8 / RFU, STRN3 / Fold change vs veh, STRN3 / RFU, ADK / Fold change vs veh, ADK / RFU, RASSF2 / Fold change vs veh, RASSF2 / RFU, WIPF1 / Fold change vs veh, WIPF1 / RFU, LARP1B / Fold change vs veh, LARP1B / RFU, RASA1 / Fold change vs veh, RASA1 / RFU, RB1 / Fold change vs veh, RB1 / RFU, PPFIA1 / Fold change vs veh, PPFIA1 / RFU, MAT2A / Fold change vs veh, MAT2A / RFU, CCT5 / Fold change vs veh, CCT5 / RFU, WDR92 / Fold change vs veh, WDR92 / RFU, CUX1 / Fold change vs veh, CUX1 / RFU, TTC7A / Fold change vs veh, TTC7A / RFU, TMEM135 / Fold change vs veh, TMEM135 / RFU, DEPTOR / Fold change vs veh, DEPTOR / RFU, CPM / Fold change vs veh, CPM / RFU, DNAJB6 / Fold change vs veh, DNAJB6 / RFU, CACNA2D3 / Fold change vs veh, CACNA2D3 / RFU, DTX4 / Fold change vs veh, DTX4 / RFU, TFCP2 / Fold change vs veh, TFCP2 / RFU, GMCL1 /// GMCL1P1 / Fold change vs veh, GMCL1 /// GMCL1P1 / RFU, AEBP2 / Fold change vs veh, AEBP2 / RFU, SNHG1 /// SNORD22 /// SNORD25 /// SNORD26 /// SNORD27 /// SNORD28 /// SNORD29 /// SNORD31 / Fold change vs veh, SNHG1 /// SNORD22 /// SNORD25 /// SNORD26 /// SNORD27 /// SNORD28 /// SNORD29 /// SNORD31 / Fold change (Aza/veh), C12orf56 (ProbeSet 11735607_a_at) / Fold change (ACY-1035/veh), C12orf56 (ProbeSet 11735607_a_at) / Fold change (Aza/veh), FGFR1OP (ProbeSet 11751329_s_at) / Fold change (ACY-1035/veh), FGFR1OP (ProbeSet 11751329_s_at) / Fold change (Aza/veh), VPS36 (ProbeSet 11739960_a_at) / Fold change (ACY-1035/veh), VPS36 (ProbeSet 11739960_a_at) / RFU SYPL1 (11715823_x_at) / Fold change /veh SYPL1 (11715823_x_at) / RFU IGFBP7 (11715501_s_at) / Fold change /veh IGFBP7 (11715501_s_at) / RFU REEP3 (11722064_at) / Fold change /veh REEP3 (11722064_at) / RFU IGLL1 (11728026_x_at) / Fold change /veh IGLL1 (11728026_x_at): dose or concentration left out as unconfirmed
Settings: MV-4-11 cells, 48 hours

Nc1ncn([C@@H]2O[C@H](CO)[C@@H](O)[C@H]2O)c(=O)n1 [azacitidine]
Fold change /veh 11762660_at: 1.27
